Source: ChEMBL document CHEMBL2406944, “Development of stapled short helical peptides capable of inhibiting vitamin D receptor (VDR)-coactivator interactions” (Bioorg Med Chem Lett, 2013)
Starred links: 1 amine or outer side, 2 acyl side, 3 side chain; linkers in the order of their positions; H or OH if unused. Positions of bridges follow the written chain, without caps; N, C: chain ends. Non-standard residues stand in square brackets, D forms with d. Residues, ends and D or L forms follow the SMILES beside them. hSer = N[C@@H](CCO)C(=O)O; X1 = C(CC[*:2])C[*:1]; Aib = CC(C)(N)C(=O)O

target: T1, Vitamin D3 receptor (Homo sapiens, UniProt P11473); assay: Inhibition of human VDR-coactivator interaction
T1 sequence (P11473 whole entry): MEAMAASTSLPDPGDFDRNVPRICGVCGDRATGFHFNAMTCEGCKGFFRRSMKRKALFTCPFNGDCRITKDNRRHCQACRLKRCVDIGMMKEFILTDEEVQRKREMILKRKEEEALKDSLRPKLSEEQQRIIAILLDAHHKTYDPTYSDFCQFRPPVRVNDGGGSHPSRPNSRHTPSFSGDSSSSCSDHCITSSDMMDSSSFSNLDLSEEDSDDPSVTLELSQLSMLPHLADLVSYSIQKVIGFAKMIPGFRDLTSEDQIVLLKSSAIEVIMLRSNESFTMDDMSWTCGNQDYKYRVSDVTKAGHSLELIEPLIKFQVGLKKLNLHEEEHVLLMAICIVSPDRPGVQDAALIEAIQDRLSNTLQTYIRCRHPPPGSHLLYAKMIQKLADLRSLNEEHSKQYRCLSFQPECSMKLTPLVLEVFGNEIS

Row | SMILES | IC50 [µM]
1 | CC(C)C[C@@H]1NC(=O)[C@H](CC(C)C)NC(=O)C(C)(C)NC(=O)[C@H](NC(=O)[C@H](CC(C)C)NC(=O)[C@@H](N)CC(C)C)COCCCCOC[C@@H](C(=O)O)NC1=O | 610
2 | CC(C)C[C@@H]1NC(=O)[C@H](CC(C)C)NC(=O)C(C)(C)NC(=O)[C@H](NC(=O)[C@H](CC(C)C)NC(=O)[C@@H](N)CC(C)C)COCCCCOC[C@H](C(=O)O)NC1=O | 600
3 | CC(C)C[C@@H]1NC(=O)[C@H](CC(C)C)NC(=O)C(C)(C)NC(=O)[C@@H](NC(=O)[C@H](CC(C)C)NC(=O)[C@@H](N)CC(C)C)COCCCCOC[C@H](C(=O)O)NC1=O | 430
4 | CC(C)C[C@@H]1NC(=O)[C@H](CC(C)C)NC(=O)C(C)(C)NC(=O)[C@@H](NC(=O)[C@H](CC(C)C)NC(=O)[C@@H](N)CC(C)C)COCCCCOC[C@@H](C(=O)O)NC1=O | 610

The next lines start with the values.

Row | IC50 [µM] | SMILES
5 | 520 | CC(C)C[C@@H]1NC(=O)[C@H](CC(C)C)NC(=O)C(C)(C)NC(=O)[C@@H](NC(=O)[C@H](CC(C)C)NC(=O)[C@@H](N)CC(C)C)CCOCCCCOC[C@@H](C(=O)O)NC1=O (H-LL[hSer][Aib]LLS-OH; linker 3-7 via X1)
6 | 220 | CC(C)C[C@@H]1NC(=O)[C@H](CC(C)C)NC(=O)C(C)(C)NC(=O)[C@@H](NC(=O)[C@H](CC(C)C)NC(=O)[C@@H](N)CC(C)C)CCOCCCCOCC[C@@H](C(=O)O)NC1=O (H-LL[hSer][Aib]LL[hSer]-OH; linker 3-7 via X1)
7 | 3.2 | CC(C)C[C@@H]1NC(=O)[C@H](CC(C)C)NC(=O)C(C)(C)NC(=O)[C@@H](NC(=O)[C@H](CC(C)C)NC(=O)[C@@H](N)CC(C)C)CCOCC(O)C(O)COCC[C@@H](C(=O)O)NC1=O (mixture of isomers)
